Data on four compounds can be found in ChEMBL document CHEMBL2401727, “Searching for new antiarrhythmic agents: evaluation of meta-hydroxymexiletine enantiomers” (Eur J Med Chem, 2013).

One may read the EC50 as the concentration at which the effect is half-maximal. The inhibition is the percentage by which the read-out fell short of the control. What is called IC50 is the point on the concentration scale where inhibition reaches its midpoint. In general, half-life refers to the time needed for the level to fall by half in the phase considered.

Data set [1] concerns Left cardiac atrium. The experiment in a line: Negative inotropic activity in guinea pig left atria assessed as decrease of 1 Hz current-induced developed tension. Type of data set: functional. The conditions noted are these: Cavia porcellus.
For data set [2], the system named is Ileum. The experiment in a line: Relaxtant activity in guinea pig K+-depolarized ileum longitudinal smooth muscle assessed as inhibition of calcium-induced contraction at 10^-4 M relative to control. The settings on record: Cavia porcellus. Type of data set: functional.
Data set [3] can be described thus: Negative chronotropic activity in guinea pig spontaneously beating right atria assessed as decrease in atrial rate at 10^-5 M relative to control. The format is functional, Cavia porcellus, Cardiac atrium. More on the design: scale not given: the % may be the effect or the level left.
Data set [4] deals with Left cardiac atrium. The experiment in a line: Negative inotropic activity in guinea pig left atria assessed as decrease of 1 Hz current-induced developed tension at 10^-6 M relative to control. More on the design: scale not given: the % may be the effect or the level left. The format is functional, Cavia porcellus.
Data set [5] relates to Heart. The experiment in a line: Antiarrhythmic activity in guinea pig left atria assessed as increase of threshold of 1 Hz alternating current-induced arrhythmia at 10^-6 M measured every 30 mins relative to control. Type of data set: functional, Cavia porcellus.
Data set [6] relates to Heart. The experiment in a line: Antiarrhythmic activity in guinea pig left atria assessed as increase of threshold of 1 Hz alternating current-induced arrhythmia at 1 Hz measured every 30 mins. Type of data set: functional, tissue-based. The conditions noted are these: Cavia porcellus, 0.5 h.
The test system of data set [7] is Aorta. The experiment in a line: Vasorelaxant activity in guinea pig K+-depolarized aortic strip assessed as inhibition of calcium-induced contraction at 5 X 10^-5 M relative to control. The format is functional. The conditions noted are these: Cavia porcellus.
In data set [8] the test system is Heart. The experiment in a line: Antiarrhythmic activity in guinea pig left atria assessed as increase of threshold of 1 Hz alternating current-induced arrhythmia at 10^-4 M measured every 30 mins relative to control. Type of data set: functional, Cavia porcellus.
Data set [9] relates to Ileum. The experiment in a line: Relaxtant activity in guinea pig K+-depolarized ileum longitudinal smooth muscle assessed as inhibition of calcium-induced contraction. The format is functional, tissue-based. The settings on record: Cavia porcellus.
For data set [10], the system named is Aorta. The experiment in a line: Vasorelaxant activity in guinea pig K+-depolarized aortic strip assessed as inhibition of calcium-induced contraction at 10^-4 M relative to control. The format is functional. The conditions noted are these: Cavia porcellus.
Data set [11] relates to Left cardiac atrium. The experiment in a line: Negative inotropic activity in guinea pig left atria assessed as decrease of 1 Hz current-induced developed tension at 5 X 10^-5 M relative to control. Type of data set: functional, Cavia porcellus. More on the design: scale not given: the % may be the effect or the level left.
Data set [12] in a line: Elimination half life in human. The conditions noted are these: in vivo.

Consider `Cc1ccc(O)c(C)c1OC[C@@H](C)N`, for which the results for the concentration for a half-maximal effect (EC50) in the data set with Left cardiac atrium [1] and in the data set with Heart [6] were 0.025 µM and 0.56 µM, respectively. Moreover, in the data set on Ileum [2], the inhibition at 100 µM was determined as 47%. For the same compound, the Activity in [3] is 34%; with Left cardiac atrium [4] it was 89%. The “%max” value in the data set with Heart [5] is recorded as 66%. Further, in the data set with Aorta [7], the inhibition at 50 µM was 1%.
Consider `Cc1ccc(O)c(C)c1OC[C@H](C)N`, for which the EC50 with Left cardiac atrium [1] is 0.12 µM. In addition, the inhibition at 100 µM with Ileum [2] was found to be 75%; in the data set on Aorta [10], 4%. In addition, the Activity came to 16% in data set [3] and 93% in the data set with Left cardiac atrium [11]. Moreover, in the data set on Heart [8], the “%max” value is listed as 13%. Besides, in the data set on Ileum [9], the IC50 amounted to 13.6 µM.
Turning to `Cc1ccc(O)c(C)c1OCC(C)N` (racemic), in the data set with Ileum [2], the inhibition at 100 µM amounted to 51%. For the same compound, the IC50 in the data set with Ileum [9] was 25.8 µM.
In data set [12], `Cc1cccc(C)c1OCC(C)N` (centres undefined) [MEXILETINE] gave a half-life of 10 h. For the same compound, the inhibition at 100 µM with Ileum [2] turned out to be 81%. Besides, the IC50 in the data set on Ileum [9] amounted to 8.52 µM.
